Laboratory results published in BindingDB's records for doi:10.1016/s0960-894x(98)00213-3 (Centre De Recherche Pierre Fabre, 1999).

Experiments:
[1] = In vitro inhibition of pig liver squalene epoxidase in HepG2 cells
[2] = In vitro inhibition of dog liver squalene epoxidase in HepG2 cells

IC50 [1]: 50 nM | IC50 [2]: 80 nM
Compound: CCN(C/C=C/C#CC(C)(C)C)Cc1cccc(OCCN(C)S(=O)(=O)c2cccs2)c1 [Thiophene-2-sulfonic acid [2-(3-{[((E)-6,6-dimethyl-hept-2-en-4-ynyl)-ethyl-amino]-methyl}-phenoxy)-ethyl]-methyl-amide]
